Holding throughout (assay type): biochemical
In one experiment the target is SIK1 (Homo sapiens, UniProt P57059). Description: Enzymatic activity assay SIK1, RapidFire mass spectrometry (phosphorylation of CHK-peptide). To be noted: RapidFire MS, inhibition of SIK1; read-out: SIK1 RF IC50. Put shortly: (§1)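 Compounds (12-point, 3-fold, generally 30 μM to 170 pM) were pre-incubated 30 min at ambient temperature with SIK1 (5 nM), SIK2 (0.5 nM) or SIK3 (1.5 nM) in HEPES pH 7.0/magnesium acetate buffer. CHK-peptide (10 μM solution) and ATP (100 μM solution) were then added for 45 min before formic acid quench.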
Chain of SIK1 (P57059 whole entry): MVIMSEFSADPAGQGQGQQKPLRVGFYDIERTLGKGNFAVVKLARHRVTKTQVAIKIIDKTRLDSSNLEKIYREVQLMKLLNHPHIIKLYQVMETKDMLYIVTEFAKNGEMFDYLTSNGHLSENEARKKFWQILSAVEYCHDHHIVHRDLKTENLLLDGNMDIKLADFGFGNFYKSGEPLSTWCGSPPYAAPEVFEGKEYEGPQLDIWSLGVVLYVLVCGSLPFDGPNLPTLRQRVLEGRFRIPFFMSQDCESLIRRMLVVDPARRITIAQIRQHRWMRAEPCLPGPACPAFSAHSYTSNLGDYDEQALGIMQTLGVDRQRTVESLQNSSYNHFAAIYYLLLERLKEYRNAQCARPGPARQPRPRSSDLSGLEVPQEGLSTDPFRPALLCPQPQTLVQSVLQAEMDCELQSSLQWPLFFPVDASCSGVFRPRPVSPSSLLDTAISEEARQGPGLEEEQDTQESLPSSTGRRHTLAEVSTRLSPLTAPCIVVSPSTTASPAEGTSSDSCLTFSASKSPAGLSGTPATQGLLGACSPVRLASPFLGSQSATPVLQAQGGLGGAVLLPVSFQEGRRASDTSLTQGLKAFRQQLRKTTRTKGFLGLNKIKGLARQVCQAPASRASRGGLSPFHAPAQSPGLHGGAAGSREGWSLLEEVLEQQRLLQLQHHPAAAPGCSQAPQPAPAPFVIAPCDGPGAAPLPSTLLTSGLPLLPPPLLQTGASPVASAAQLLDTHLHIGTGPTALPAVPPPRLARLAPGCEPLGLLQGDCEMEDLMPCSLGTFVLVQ

For another experiment, the target named is SIK3 (Homo sapiens, UniProt Q9Y2K2). Description: Enzymatic activity assay SIK3, RapidFire mass spectrometry (phosphorylation of CHK-peptide). The settings on record: RapidFire MS, inhibition of SIK3; read-out: SIK3 RF IC50. Put shortly: as §1
Chain of SIK3 (Q9Y2K2 whole entry): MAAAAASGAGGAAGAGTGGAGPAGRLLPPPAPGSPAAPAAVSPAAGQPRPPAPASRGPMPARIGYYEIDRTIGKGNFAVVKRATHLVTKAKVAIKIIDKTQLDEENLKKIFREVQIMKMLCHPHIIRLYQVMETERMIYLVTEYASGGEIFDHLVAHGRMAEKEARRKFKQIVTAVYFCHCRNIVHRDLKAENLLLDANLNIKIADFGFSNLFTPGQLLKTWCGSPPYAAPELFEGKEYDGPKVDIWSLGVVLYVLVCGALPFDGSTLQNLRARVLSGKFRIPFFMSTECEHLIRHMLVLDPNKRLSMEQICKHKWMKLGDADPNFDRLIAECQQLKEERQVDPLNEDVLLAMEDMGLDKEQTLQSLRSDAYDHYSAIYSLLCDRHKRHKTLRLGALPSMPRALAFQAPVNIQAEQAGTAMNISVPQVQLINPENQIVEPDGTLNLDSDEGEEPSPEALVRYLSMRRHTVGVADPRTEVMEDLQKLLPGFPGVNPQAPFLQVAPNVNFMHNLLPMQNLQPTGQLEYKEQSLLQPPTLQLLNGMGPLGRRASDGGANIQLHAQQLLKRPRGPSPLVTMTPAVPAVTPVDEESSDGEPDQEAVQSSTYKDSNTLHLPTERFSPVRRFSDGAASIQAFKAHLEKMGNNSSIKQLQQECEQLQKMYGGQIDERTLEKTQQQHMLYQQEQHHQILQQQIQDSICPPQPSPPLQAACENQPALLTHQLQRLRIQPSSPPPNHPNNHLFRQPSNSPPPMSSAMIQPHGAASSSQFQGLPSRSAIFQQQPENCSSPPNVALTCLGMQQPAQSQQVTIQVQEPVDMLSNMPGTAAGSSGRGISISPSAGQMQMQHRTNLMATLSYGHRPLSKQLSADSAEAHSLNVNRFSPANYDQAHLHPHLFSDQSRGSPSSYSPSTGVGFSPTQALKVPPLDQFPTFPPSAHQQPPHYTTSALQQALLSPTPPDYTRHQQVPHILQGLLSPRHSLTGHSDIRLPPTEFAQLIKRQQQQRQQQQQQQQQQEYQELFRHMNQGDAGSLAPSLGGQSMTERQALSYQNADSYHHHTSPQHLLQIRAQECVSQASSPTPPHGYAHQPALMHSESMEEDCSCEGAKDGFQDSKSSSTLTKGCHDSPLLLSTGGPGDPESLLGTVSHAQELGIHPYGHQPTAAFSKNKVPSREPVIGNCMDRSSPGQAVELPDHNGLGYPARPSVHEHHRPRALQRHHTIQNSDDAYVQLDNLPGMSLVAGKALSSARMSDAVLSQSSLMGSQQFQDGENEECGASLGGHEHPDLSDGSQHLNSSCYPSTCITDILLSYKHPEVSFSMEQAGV
The target of the next experiment is SIK2 (Homo sapiens, UniProt Q9H0K1). Description: Enzymatic activity assay SIK2, RapidFire mass spectrometry (phosphorylation of CHK-peptide). To be noted: RapidFire MS, inhibition of SIK2; read-out: SIK2 RF IC50. In a few lines:
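SIK2 (0.5 nM) in pH 7.0 HEPES buffer with 10 mM Mg acetate phosphorylates CHK-peptide (10 μM solution) with 100 μM ATP solution, 45 min ambient, then formic acid quench.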

Chain of SIK2 (Q9H0K1 whole entry): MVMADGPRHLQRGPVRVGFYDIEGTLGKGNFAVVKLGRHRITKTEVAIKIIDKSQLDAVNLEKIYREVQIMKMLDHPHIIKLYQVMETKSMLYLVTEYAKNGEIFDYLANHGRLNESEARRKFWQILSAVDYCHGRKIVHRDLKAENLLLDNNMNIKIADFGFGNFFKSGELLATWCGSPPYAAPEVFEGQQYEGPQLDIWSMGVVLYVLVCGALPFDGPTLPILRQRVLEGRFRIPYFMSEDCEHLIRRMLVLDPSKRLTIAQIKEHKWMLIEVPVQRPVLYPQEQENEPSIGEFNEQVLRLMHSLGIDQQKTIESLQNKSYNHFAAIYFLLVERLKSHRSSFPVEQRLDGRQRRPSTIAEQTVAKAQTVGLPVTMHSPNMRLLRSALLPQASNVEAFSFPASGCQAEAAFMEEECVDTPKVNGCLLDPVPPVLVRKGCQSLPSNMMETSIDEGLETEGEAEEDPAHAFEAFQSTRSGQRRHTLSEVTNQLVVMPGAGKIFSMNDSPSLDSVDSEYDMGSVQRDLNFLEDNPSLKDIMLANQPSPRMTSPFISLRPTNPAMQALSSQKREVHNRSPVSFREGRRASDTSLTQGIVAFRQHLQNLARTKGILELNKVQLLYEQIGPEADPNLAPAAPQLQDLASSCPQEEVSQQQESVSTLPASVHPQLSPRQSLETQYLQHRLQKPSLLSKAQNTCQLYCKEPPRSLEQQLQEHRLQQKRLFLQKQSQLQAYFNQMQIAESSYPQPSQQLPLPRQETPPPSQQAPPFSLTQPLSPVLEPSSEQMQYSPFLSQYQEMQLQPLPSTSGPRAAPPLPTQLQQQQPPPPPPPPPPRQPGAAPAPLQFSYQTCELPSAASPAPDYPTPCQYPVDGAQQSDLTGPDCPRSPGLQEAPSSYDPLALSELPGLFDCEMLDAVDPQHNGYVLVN

For the compound `Cc1cc(C#N)nn1-c1nc(-n2cnc3cc(N4CCCC4C(=O)N(C)C)ccc32)ccc1C(C)O` (stereo not drawn) [Example 312, 1-[1-[6-(3-cyano-5-methyl-pyrazol-1-yl)-5-(1-hydroxyethyl)-2-pyridyl]benzimidazol-5-yl]-N,N-dimethyl-pyrrolidine-2-carboxamide], the results for the IC50 at SIK1, on SIK3 and at SIK2 were 250 nM, 85.6 nM and 79.6 nM, respectively.

For `Cc1ccc(Nc2cc3ncn(-c4ccc([C@@H](C)O)c(-n5nc(OC(F)F)cc5C)n4)c3cc2OC2COC2)nn1` [Example 384, (1R)-1-[2-[3-(difluoromethoxy)-5-methyl-pyrazol-1-yl]-6-[5-[(6-methylpyridazin-3-yl)amino]-6-(oxetan-3-yloxy)benzimidazol-1-yl]-3-pyridyl]ethanol], the IC50 on SIK1 was 215 nM; on SIK3 it was 80.2 nM; on SIK2, 41.3 nM.

For `Cc1cc(C(F)F)nn1-c1nc(-n2cnc3cc(N4C[C@H]5OCCN(C)[C@H]5C4)ccc32)ccc1CO` [Example 318, [6-[5-[(4aS,7aR)-4-methyl-2,3,4a,5,7,7a-hexahydropyrrolo[3,4-b][1,4]oxazin-6-yl]benzimidazol-1-yl]-2-[3-(difluoromethyl)-5-methyl-pyrazol-1-yl]-3-pyridyl]methanol], the IC50 at SIK1 came to 327 nM; at SIK3, 65 nM; at SIK2 it was 50.1 nM.

As for `Cc1cc(OC(F)F)nn1-c1nc(-n2cnc3cc(Nc4cccnn4)c(F)cc32)ccc1[C@H](C)O` [Example 373, (1S)-1-[2-[3-(difluoromethoxy)-5-methyl-pyrazol-1-yl]-6-[6-fluoro-5-(pyridazin-3-ylamino)benzimidazol-1-yl]-3-pyridyl]ethanol], the results for the half-maximal inhibitory concentration (IC50) at SIK1, at SIK3 and at SIK2 were 184 nM, 0.7 nM and 0.8 nM, respectively.

Turning to `Cc1ccc(Nc2ccc3c(c2)ncn3-c2ccc(C(C)O)c(-c3cnc(O)cc3C(F)(F)F)n2)nn1` (stereo not drawn) [Example 164, 5-[3-(1-Hydroxyethyl)-6-[5-[(6-methylpyridazin-3-yl)amino]benzimidazol-1-yl]-2-pyridyl]-4-(trifluoromethyl)pyridin-2-ol], the IC50 is above 30000 nM on SIK1, 963 nM at SIK3 and 3300 nM on SIK2.

For `Cc1ccc(Nc2ccc3c(c2)ncn3-c2ccc(C(C)O)c(N3CC4CC4(C#N)C3)n2)nn1` (stereo not drawn) [Example 321, 3-[3-(1-hydroxyethyl)-6-[5-[(6-methylpyridazin-3-yl)amino]benzimidazol-1-yl]-2-pyridyl]-3-azabicyclo[3.1.0]hexane-1-carbonitrile], the IC50 at SIK1 was found to be 1100 nM; on SIK3 it was 3.5 nM; on SIK2 it was 19.2 nM.

Regarding `Cc1ccc(Nc2ccc3c(c2)ncn3-c2ccc(C(C)O)c(-c3cc(C#N)n(C)n3)n2)nn1` (stereo not drawn) [Example 246, 5-[3-(1-Hydroxyethyl)-6-[5-[(6-methylpyridazin-3-yl)amino]benzimidazol-1-yl]-2-pyridyl]-2-methyl-pyrazole-3-carbonitrile; formic acid], the values for the IC50 on SIK1, on SIK3 and on SIK2 were 7780 nM, 5.4 nM and 29.5 nM, respectively.

As to `COCC(O)c1ccc(-n2cnc3cc(Nc4ccc(C)nn4)ccc32)nc1-n1nc(C#N)cc1C` (stereo not drawn) [Example 234, 1-[3-(1-Hydroxy-2-methoxy-ethyl)-6-[5-[(6-methylpyridazin-3-yl)amino]benzimidazol-1-yl]-2-pyridyl]-5-methyl-pyrazole-3-carbonitrile; formic acid], the IC50 at SIK1 is 756 nM; on SIK3, 1.1 nM; at SIK2 it was 9.3 nM.

As for `Cc1ccc(Nc2ccc3c(c2)ncn3-c2ccc([C@H](C)O)c(-n3nc(C(F)F)cc3C)n2)nn1` [Example 229, (1S)-1-[2-[3-(Difluoromethyl)-5-methyl-pyrazol-1-yl]-6-[5-[(6-methylpyridazin-3-yl)amino]benzimidazol-1-yl]-3-pyridyl]ethanol], the IC50 on SIK1 was 223 nM; at SIK3, 0.4 nM; on SIK2, 1.5 nM.

For `Cc1cc(C#N)nn1-c1nc(-n2cnc3cc(Nc4nccnn4)ccc32)ccc1C(C)O` (stereo not drawn) [Example 119, 1-[3-(1-Hydroxyethyl)-6-[5-(1,2,4-triazin-3-ylamino)benzimidazol-1-yl]-2-pyridyl]-5-methyl-pyrazole-3-carbonitrile], the IC50 worked out at 12 nM on SIK1, 1.6 nM at SIK3 and 1.8 nM on SIK2.

Consider `Cc1ccc(Nc2ccc3c(c2)ncn3-c2ccc(C(C)O)c(-c3cnn4c3C(=O)NCC4)n2)nn1` (stereo not drawn) [Example 165, 3-[3-(1-Hydroxyethyl)-6-[5-[(6-methylpyridazin-3-yl)amino]benzimidazol-1-yl]-2-pyridyl]-6,7-dihydro-5H-pyrazolo[1,5-a]pyrazin-4-one], for which the IC50 on SIK1 was found to be 13300 nM; at SIK3, 95.5 nM; at SIK2, 359 nM.

Regarding `Cc1ccc(Nc2ccc3ncn(-c4ccc([C@H](C)O)c(-n5nc(C#N)cc5C)n4)c3c2)nn1` [Example 280, 1-[3-[(1S)-1-hydroxyethyl]-6-[6-[(6-methylpyridazin-3-yl)amino]benzimidazol-1-yl]-2-pyridyl]-5-methyl-pyrazole-3-carbonitrile], the results for the IC50 on SIK1, on SIK3 and at SIK2 were 39 nM, 149 nM and 26.3 nM, respectively.

For the compound `Cc1cc(C(F)F)nn1-c1nc(-n2cnc3cc(Nc4ccc(Cl)nn4)c(F)cc32)ccc1C(C)O` (stereo not drawn) [Example 372, 1-[6-[5-[(6-chloropyridazin-3-yl)amino]-6-fluoro-benzimidazol-1-yl]-2-[3-(difluoromethyl)-5-methyl-pyrazol-1-yl]-3-pyridyl]ethanol], the IC50 at SIK1 amounted to 1220 nM; at SIK3, 3.6 nM; at SIK2 it was 8.5 nM.

On to `Cc1ccc(Nc2ccc3ncn(-c4ccc(C(C)O)c(N5CC(C)(C#N)C5)n4)c3c2)nn1` (stereo not drawn) [Example 184, 1-[3-(1-Hydroxyethyl)-6-[6-[(6-methylpyridazin-3-yl)amino]benzimidazol-1-yl]-2-pyridyl]-3-methyl-azetidine-3-carbonitrile], for which the IC50 was 1990 nM on SIK1, 1900 nM at SIK3 and 2500 nM at SIK2.

Turning to `Cc1ccc(Nc2ccc3ncn(-c4ccc(C(C)O)c(-n5cc(C#N)c(C)n5)n4)c3c2)nn1` (stereo not drawn) [Example 178, 1-[3-(1-Hydroxyethyl)-6-[6-[(6-methylpyridazin-3-yl)amino]benzimidazol-1-yl]-2-pyridyl]-3-methyl-pyrazole-4-carbonitrile], the half-maximal inhibitory concentration (IC50) worked out at 27000 nM at SIK1, 10000 nM at SIK3 and 6340 nM on SIK2.

`Cc1cc(C#N)nn1-c1nc(-n2cnc3cc(F)c(N[C@@H]4CNC[C@@H]4F)cc32)ccc1C(C)O` (stereo in doubt) [Example 188, 1-[6-[5-fluoro-6-[[(3R,4S)-4-fluoropyrrolidin-3-yl]amino]benzimidazol-1-yl]-3-(1-hydroxyethyl)pyridin-2-yl]-5-methylpyrazole-3-carbonitrile]: the half-maximal inhibitory concentration (IC50) is 87 nM at SIK1, 213 nM on SIK3 and 70 nM on SIK2.

For `Cc1ncc(Nc2cc3ncn(-c4ccc([C@H](C)O)c(-n5nc(C#N)cc5C)n4)c3cc2F)cc1F` [Example 391, 1-[6-[6-fluoro-5-[(5-fluoro-6-methyl-3-pyridyl)amino]benzimidazol-1-yl]-3-[(1S)-1-hydroxyethyl]-2-pyridyl]-5-methyl-pyrazole-3-carbonitrile], the IC50 on SIK1 was 23 nM; on SIK3, 2 nM; on SIK2, 4.5 nM.

Turning to `Cc1ccc(Nc2ccc3ncn(-c4ccc(C(C)O)c(-n5nc(OC(F)F)cc5C(F)F)n4)c3c2)nn1` (stereo not drawn) [Example 405], the values for the IC50 at SIK1, on SIK3 and on SIK2 were 39 nM, 150 nM and 19.8 nM, respectively.

Take `COc1cc2ncn(-c3ccc([C@@H](C)O)c(-c4ccccc4C(N)=O)n3)c2cc1OC` [Example 36, (R)-2-(6-(5,6-Dimethoxy-1H-benzo[d]imidazol-1-yl)-3-(1-hydroxyethyl)pyridin-2-yl)benzamide]: the figures for the IC50 on SIK1, at SIK3 and on SIK2 were 23900 nM, 13600 nM and 9680 nM, respectively.

For `Cc1ccc(Nc2ccc3ncn(-c4ccc(C(C)O)c(N5CCC(C)(C#N)C5)n4)c3c2)nn1` (stereo not drawn) [Example 120, 1-[3-(1-Hydroxyethyl)-6-[6-[(6-methylpyridazin-3-yl)amino]benzimidazol-1-yl]-2-pyridyl]-3-methyl-pyrrolidine-3-carbonitrile], the IC50 on SIK1 came to 2210 nM; at SIK3, 307 nM; at SIK2 it was 1310 nM.

As for `Cc1ccc(Nc2ccc3c(c2)ncn3-c2ccc(C(C)O)c(N3CC(C#N)C4(CCC4)C3)n2)nn1` (stereo not drawn) [Example 359, 6-[3-(1-hydroxyethyl)-6-[5-[(6-methylpyridazin-3-yl)amino]benzimidazol-1-yl]-2-pyridyl]-6-azaspiro[3.4]octane-8-carbonitrile], the results for the IC50 at SIK1, at SIK3 and on SIK2 were 1170 nM, 4.6 nM and 25.3 nM, respectively.

Consider `Cc1ccc(Nc2ccc3c(c2)ncn3-c2ccc(C(C)O)c(N3CCC(C)(C#N)C3)n2)nn1` (stereo not drawn) [Example 121, 1-[3-(1-Hydroxyethyl)-6-[5-[(6-methylpyridazin-3-yl)amino]benzimidazol-1-yl]-2-pyridyl]-3-methyl-pyrrolidine-3-carbonitrile], for which the IC50 was found to be 1200 nM at SIK1, 3.6 nM on SIK3 and 22.4 nM on SIK2.
